We go through twelve molecules from ChEMBL document CHEMBL4334523, “Enzymatic Preparation of 2'-5',3'-5'-Cyclic Dinucleotides, Their Binding Properties to Stimulator of Interferon Genes Adaptor Protein, and Structure/Activity Correlations” (J Med Chem, 2019).

Data set [1] addresses Stimulator of interferon genes protein (Homo sapiens, UniProt Q86WV6, R293Q). Nature of the data set: Activation of recombinant human STING haplotype R293Q mutant expressed in 293T cells measured after 30 mins in presence of digitonin A by bright Glo-luciferase reporter gene assay. Type of data set: cell-based.
The target of data set [2] is Stimulator of interferon genes protein (Homo sapiens, UniProt Q86WV6, G230A/R293Q/R71H). Nature of the data set: Activation of recombinant human STING haplotype R71H/G230A/R293Q mutant expressed in 293T cells measured after 30 mins in presence of digitonin A by bright Glo-luciferase reporter gene assay. In kind it is cell-based.
Chain of Stimulator of interferon genes protein (Homo sapiens, UniProt Q86WV6, G230A/R293Q/R71H) (Q86WV6 whole entry R71H/G230A/R293Q): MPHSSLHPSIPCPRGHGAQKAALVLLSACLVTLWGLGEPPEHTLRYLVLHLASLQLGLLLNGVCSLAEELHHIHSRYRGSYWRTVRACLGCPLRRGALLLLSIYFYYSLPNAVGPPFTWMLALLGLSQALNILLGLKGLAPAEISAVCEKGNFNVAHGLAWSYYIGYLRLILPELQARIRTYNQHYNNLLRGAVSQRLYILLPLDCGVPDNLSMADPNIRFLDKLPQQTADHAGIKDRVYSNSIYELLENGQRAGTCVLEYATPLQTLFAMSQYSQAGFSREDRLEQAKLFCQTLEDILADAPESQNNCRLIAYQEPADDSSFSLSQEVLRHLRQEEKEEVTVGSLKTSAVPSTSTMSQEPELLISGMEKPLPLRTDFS
Data set [3] has as its target Stimulator of interferon genes protein (Homo sapiens, UniProt Q86WV6, G230A/R293Q). Nature of the data set: Activation of recombinant human STING haplotype G230A/R293Q mutant expressed in 293T cells measured after 30 mins in presence of digitonin A by bright Glo-luciferase reporter gene assay. In kind it is cell-based.
A short description of another data set: cells. To be noted: Homo sapiens, HEK-293T, 0.5 h.
The species named for a further data set is Homo sapiens. In kind it is cell-based.
Data set [4] has as its target T1, Stimulator of interferon genes protein (Homo sapiens, UniProt Q86WV6).
Description: Binding affinity to recombinant human wild-type STING assessed as change in melting temperature at 150 uM by SYPRO orange dye based differential scanning fluorimetric method
For data set [5], the target named is T1, Stimulator of interferon genes protein. Nature of the data set: Activation of recombinant human wild-type STING expressed in 293T cells incubated for 7 hrs in absence of digitonin A by bright Glo-luciferase reporter gene assay. In kind it is cell-based.
Data set [6] in a line: Cytotoxicity against human PBMC-derived CD3-positive T cells assessed as effect on cell viability at 12.5 uM incubated for 16 hrs by Zombie-NIR staining-based flow cytometry.
For data set [7], the target named is T1, Stimulator of interferon genes protein. Nature of the data set: Activation of recombinant human wild-type STING expressed in 293T cells measured after 30 mins in presence of digitonin A by bright Glo-luciferase reporter gene assay. Type of data set: cell-based.
The test system of another data set is Monocyte. Kind of data set: Cytotoxicity against human PBMC-derived monocytes assessed as CD3-negative CD14 positive monocyte viability at 12.5 uM incubated for 16 hrs by Zombie-NIR staining-based flow cytometry relative to control. In kind it is functional.

Chain of Stimulator of interferon genes protein (Homo sapiens, UniProt Q86WV6, G230A/R293Q) (Q86WV6 whole entry G230A/R293Q): as the sequence (Q86WV6 whole entry R71H/G230A/R293Q) above, with H71R counted along it
Chain of Stimulator of interferon genes protein (Homo sapiens, UniProt Q86WV6, R293Q) (Q86WV6 whole entry R293Q): as the sequence (Q86WV6 whole entry R71H/G230A/R293Q) above, with H71R, A230G counted along it
T1 sequence (Q86WV6 whole entry): as the sequence (Q86WV6 whole entry R71H/G230A/R293Q) above, with H71R, A230G, Q293R counted along it
Description for cells: Activation of recombinant human STING haplotype R232H mutant expressed in 293T cells measured after 30 mins in presence of digitonin A by bright Glo-luciferase reporter gene assay

On to `NC(=O)c1ncn([C@@H]2O[C@@H]3COP(=O)(O)O[C@@H]4[C@H](O)[C@@H](COP(=O)(O)O[C@H]3[C@H]2O)O[C@H]4n2cnc3c(=O)[nH]c(N)nc32)c1N`, for which the EC50 in data set [1] was 45300 nM; in data set [2], 210 nM; in data set [3] it was 210 nM; in the data set “cells” it was over 45000 nM; in data set [5] it was over 300 µM; in data set [7], 320 nM. In addition, the max activation in the data set listed under Homo sapiens is under 30%. The ΔTm in [4] was 1.7 °C. Further, the Activity entry was “Non-Toxic” in data set [6] and 83% in the data set with Monocyte.

As to `CSc1nc(N)nc2c1ncn2[C@@H]1O[C@@H]2COP(=O)(O)O[C@@H]3[C@H](O)[C@@H](COP(=O)(O)O[C@H]2[C@H]1O)O[C@H]3n1cnc2c(=O)[nH]c(N)nc21`, the EC50 is 8500 nM in data set [1]; 480 nM in data set [2]; 240 nM in data set [3]; 27600 nM in “cells”; over 300 µM in data set [5]; 300 nM in [7]. This molecule also gave a max activation in the data set filed under Homo sapiens of under 30%. Also, the ΔTm in [4] is 3.5 °C. The Activity result in data set [6] is listed as “Non-Toxic”; with Monocyte it was 4.8%.

For the molecule `Nc1nc2c([C@@H]3O[C@@H]4COP(=O)(O)O[C@H]5[C@@H](O)[C@H](n6cnc7c(N)ncnc76)O[C@@H]5COP(=O)(O)O[C@@H]3[C@@H]4O)scc2c(=O)[nH]1`, the EC50 in data set [1] was determined as 3000 nM; in data set [2] it was 250 nM; in data set [3], 50 nM; in “cells”, 6000 nM; in data set [5], 241 µM; in [7], 110 nM. For the same molecule, the max activation in the data set listed under Homo sapiens is under 30%. Also, the ΔTm in data set [4] came to 2.8 °C. For the same molecule, the Activity entry is reported as “Non-Toxic” in data set [6] and 0.9% in the data set with Monocyte.

Regarding `Nc1nc2c(ncn2[C@@H]2O[C@@H]3COP(=O)(O)O[C@H]4[C@H](O)[C@H](n5cnc6c(N)nc(F)nc65)O[C@@H]4COP(=O)(O)O[C@@H]2[C@@H]3O)c(=O)[nH]1`, the EC50 stood at 600 nM in data set [1]; 100 nM in data set [2]; 60 nM in data set [3]; 6400 nM in “cells”; 187 µM in [5]; 200 nM in data set [7]. Also, the max activation in the data set listed under Homo sapiens is under 30%. Further, in [4], the ΔTm came to 12.3 °C. For the same molecule, the Activity entry is “Non-Toxic” in [6] and 3% in the data set on Monocyte.

Consider `CSc1ncnc2c1ncn2[C@@H]1O[C@@H]2COP(=O)(O)O[C@@H]3[C@H](O)[C@@H](COP(=O)(O)O[C@H]2[C@H]1O)O[C@H]3n1cnc2c(=O)[nH]c(N)nc21`, for which the EC50 in data set [1] came to 1230 nM; in data set [2], 60 nM; in data set [3], 60 nM; in the data set “cells” it was 2300 nM; in data set [5] it was 13.3 µM; in data set [7], 10 nM. This molecule also came in with a max activation in the data set listed under Homo sapiens of under 30%. In addition, the ΔTm in data set [4] came out at 8.3 °C. The Activity entry was “Non-Toxic” in data set [6] and 0.4% with Monocyte.

Turning to `Nc1nc2c(ncn2[C@@H]2O[C@@H]3COP(=O)(O)O[C@H]4[C@@H](N)[C@H](n5cnc6c(N)ncnc65)O[C@@H]4COP(=O)(O)O[C@@H]2[C@@H]3O)c(=O)[nH]1`, the EC50 in [1] amounted to 240 nM; in data set [2] it was 30 nM; in data set [3], 20 nM; in “cells”, 1400 nM; in data set [5], 108 µM; in data set [7], 20 nM. The max activation in the data set listed under Homo sapiens is under 30%. For the same molecule, the ΔTm in data set [4] is 9.4 °C. In addition, the Activity entry in data set [6] is “Non-Toxic”; in the data set with Monocyte, 3%.

With `Nc1nc(N)c2ncn([C@@H]3O[C@@H]4COP(=O)(O)O[C@@H]5[C@H](O)[C@@H](COP(=O)(O)O[C@H]4[C@H]3F)O[C@H]5n3cnc4c(=O)[nH]c(N)nc43)c2n1`, the EC50 in data set [1] is 130 nM; in data set [2], 40 nM; in data set [3] it was 30 nM; in the data set “cells”, 170 nM; in data set [5], 27.6 µM; in data set [7], 20 nM. In the data set filed under Homo sapiens, the max activation is under 30%. Besides, the ΔTm in data set [4] was determined as 14.4 °C. In addition, the Activity entry in [6] is reported as “Non-Toxic”; in the data set on Monocyte, 2.5%.

With `Nc1nc2c(ncn2[C@@H]2O[C@@H]3COP(=O)(O)O[C@H]4[C@@H](O)[C@H](n5nnc6c(N)ncnc65)O[C@@H]4COP(=O)(O)O[C@@H]2[C@@H]3O)c(=O)[nH]1`, the EC50 was 5720 nM in [1]; 310 nM in data set [2]; 210 nM in data set [3]; 34200 nM in the data set “cells”; over 300 µM in data set [5]; 230 nM in data set [7]. Further, the max activation in the data set listed under Homo sapiens was under 30%. In data set [4], the ΔTm turned out to be 3.9 °C. Further, the Activity result was “Non-Toxic” in [6] and 2.3% in the data set on Monocyte.

Regarding `Nc1nc2c(ncn2[C@@H]2O[C@@H]3COP(=O)(O)O[C@H]4C[C@H](n5cnc6c(N)nc(Cl)nc65)O[C@@H]4COP(=O)(O)O[C@@H]2[C@@H]3O)c(=O)[nH]1`, the EC50 in [1] is 960 nM; in data set [2], 80 nM; in data set [3] it was 90 nM; in the data set “cells” it was 4700 nM; in [5] it was 58.2 µM; in data set [7] it was 70 nM. The molecule further gave a max activation in the data set filed under Homo sapiens of under 30%. Moreover, the ΔTm in data set [4] is 9.5 °C. The Activity result is on record as “Non-Toxic” in data set [6] and 0.1% with Monocyte.

With `Nc1nc2c(ncn2[C@@H]2O[C@@H]3COP(=O)(O)O[C@H]4[C@@H](O)[C@H](n5cnc6c(=S)[nH]cnc65)O[C@@H]4COP(=O)(O)O[C@@H]2[C@@H]3O)c(=O)[nH]1`, the EC50 in [1] was 8300 nM; in [2] it was 200 nM; in [3], 150 nM; in “cells” it was 1700 nM; in data set [5], 182 µM; in [7], 300 nM. In the data set filed under Homo sapiens, this molecule returned a max activation of under 30%. In addition, the ΔTm in data set [4] was 7.3 °C. The Activity result in [6] is on record as “Non-Toxic”; in the data set on Monocyte, 10%.

Turning to `Cn1c(N)nc2c(ncn2[C@@H]2O[C@@H]3COP(=O)(O)O[C@H]4[C@@H](O)[C@H](n5cnc6c(N)ncnc65)O[C@@H]4COP(=O)(O)O[C@@H]2[C@@H]3O)c1=O`, the EC50 is 780 nM in data set [1]; 40 nM in data set [2]; 40 nM in [3]; 900 nM in the data set “cells”; 40 µM in data set [5]; 20 nM in data set [7]. Further, in the data set filed under Homo sapiens, the max activation is under 30%. In addition, in [4], the ΔTm was 9 °C. Further, the Activity entry is recorded as “Non-Toxic” in data set [6] and 2% in the data set on Monocyte.

As for `Nc1nc2c(ncn2[C@@H]2O[C@@H]3COP(=O)(O)O[C@H]4C[C@H](n5cnc6c(N)nc(F)nc65)O[C@@H]4COP(=O)(O)O[C@@H]2[C@@H]3F)c(=O)[nH]1`, the EC50 was 700 nM in data set [1]; 100 nM in data set [2]; 170 nM in data set [3]; 2000 nM in the data set “cells”; over 300 µM in data set [5]; 50 nM in data set [7]. Further, the max activation in the data set filed under Homo sapiens is under 30%. Moreover, the thermal shift (ΔTm) in data set [4] was determined as 10.7 °C. Further, the Activity result is on record as “Non-Toxic” in data set [6] and 0.2% in the data set with Monocyte.
